Experimental data as given in paper PMC7059629 (Letters in drug design & discovery, 2019).

Key:
Type in all cases: cell-based
rat mGlu2/4 heterodimer = rat mGlu2/4 heterodimer (Rattus norvegicus, UniProt P31421+P31423); assay: mGlu2/4 heterodimer PAM thallium flux assay; settings: for mGlu2/4 % Glu Max: ±SEM
rat mGlu2 = rat mGlu2 (Rattus norvegicus, UniProt P31421); assay: mGlu2 homodimer thallium flux assay; settings: rat mGlu2-HEK293 cells, EC20 glutamate
homodimeric mGlu4 = homodimeric mGlu4 (Homo sapiens, UniProt Q14833); assay: mGlu4 Gqi5 calcium assay
[1] = rat mGlu2/4-HEK293 cells, thallium flux, EC20 glutamate

Structure (SMILES)	mGlu2/4 pEC50 (±SEM) (rat mGlu2/4 heterodimer; [1])	mGlu2/4 % Glu Max (rat mGlu2/4 heterodimer; [1])	mGlu2 pEC50 (±SEM) (rat mGlu2)	mGlu2 % Glu Max (rat mGlu2; ±SEM)	EC50 (rat mGlu2/4 heterodimer)	EC50 (homodimeric mGlu4)
Cc1nc(-c2ccc(OCC(C)C)c(C#N)c2)sc1C(=O)NC1CCOCC1 [11a, 2-(3-cyano-4-iosbutoxyphenyl)-4-methyl-N-(tetrahydro-2H-pyran-4-yl)thiazole-5-carboxamide]	5.28±0.03	35±2 % Glu Max	5.32±0.02	73±30 % Glu Max		
NC(=O)[C@@H]1CCCC[C@@H]1C(=O)Nc1ccc(Cl)c(Cl)c1 [compound 5, Lu AF21934]		89 % Glu Max				
Cc1nc(-c2ccc(OCC(C)C)c(C#N)c2)sc1C(=O)O [compound 9, febuxostat]		52.4±3.7 % Glu Max			3.39 µM	> 30 µM
